This is an account of results in US10787413B2, “Derivatives of curcuminoids and use thereof as an anticancer agent” (CHINA MEDICAL UNIVERSITY, priority 2016, dated 2020).

Like-named read-outs stand apart in the source and are kept apart here.

Series [1] is described as follows: Preliminary acute toxicity assay. The settings on record: oral 500 mg/kg/day for 5 consecutive days, 21 days observation, vs untreated control. The procedure: Normal mice were treated with 21a or 35a by oral route at 500 mg/kg/day for 5 consecutive days, following by 21 days of post-treatment observation. […] Detailed data for their toxicology and safety pharmacology studies will be carried out in the near future.
Female nu/nu mice (5 weeks old) were P.O. with vehicle (propylene glycol, 0.1 ml) or high dose of 21a (250 and 500 mg/kg) and 35a (500 mg/kg) for 5 days followed by observation of behavior and lethargy for 21 days.

Series [2] deals with MDA-MB-231 breast cancer cell. Kind of series: MTT cell viability assay, MDA-MB-231 breast cancer cell. Format: cell-based, human. The settings on record: for IC50: Homo sapiens. The procedure: Cell viability was evaluated by measuring the reduction in MTT to yield blue formazan. Cells were cultured in 96-well plates, allowed to attach overnight, and then treated with compounds. After treatment, MTT solution (1 mg/ml) was added to each well, and plates were incubated for another 4 h.
A general note: Formazan colour is commonly taken as a measure of viable cells.

The next series concerns PC3 prostate cancer cell. Description: MTT cell viability assay, PC3 prostate cancer cell. Format: cell-based. The procedure: (§1) Cell viability was evaluated by measuring the reduction in MTT to yield blue formazan. Cells were cultured in 96-well plates, allowed to attach overnight, and then treated with compounds. After treatment, MTT solution (1 mg/ml) was added to each well, and plates were incubated for another 4 h. Medium were removed, blue formazan was dissolved in DMSO, and the absorbance was read at 570 nm^20.

In series [3] the test system is HCT-116 colon cancer cell. Description: MTT cell viability assay, HCT-116 colon cancer cell. The settings on record: Homo sapiens. Format: cell-based. The protocol: as §1
Series [4] relates to Doxorubicin-resistant MDA-MB-231. Kind of series: Cell viability, Doxorubicin-resistant MDA-MB-231. Format: cell-based. The settings on record: for IC50: Doxorubicin-resistant MDA-MB-231, treated for 24 h. The procedure:
as §1

Series [5] has as its system MDA-MB-231 Xenograft. Kind of series: In vivo antitumor activity, MDA-MB-231 Xenograft nude mice model. The note with it: treated vs untreated control group during antitumor evaluation. The protocol: Female nu/nu mice (5 weeks old) were from National Laboratory Animal Center, Taipei, Taiwan. Mice were maintained under the procedures and guidelines from the Institutional Animal Care and Use Committee of the National Health Research Institutes, Taipei, Taiwan. All experiments were supervised under the Institutional Animal Care and Use Committee, China Medical University, Taichung, Taiwan. MDA-MB-231 breast cancer cells (5×10^6 cells per mouse) were suspended in 0.1 ml of Matrigel solution (50% (v/v) Matrigel in PBS) and inoculated into the mammary fat pads of the mice. […] Compounds was administered P.O. once every day for 32 days. Tumor size and mouse body weight were measured once every 4 days, and tumor volume (mm3) was calculated using the equation: length×(width)^2×0.5. At the end of experiments, mice were sacrificed and tumor nodules were dissected and weighed.

The test system of a further series is MCF-7. Kind of series: Cell viability, MCF-7 breast cancer cells. Format: cell-based. The note with it: Homo sapiens, MCF7; MCF-7 (ER+/PR+), treated for 24 h. The protocol:
as §1

The next series relates to SKBR-3. Description: Cell viability, SKBR-3 breast cancer cells. Format: cell-based. The note with it: Homo sapiens, SK-BR-3; SKBR-3 (Her-2+), treated for 24 h. The protocol: as §1
In the next series the test system is MDA-MB-453. Kind of series: Cell viability, MDA-MB-453 breast cancer cells. Format: cell-based. The settings on record: Homo sapiens; MDA-MB-453 (Her-2+), treated for 24 h. The protocol:
as §1

The next series relates to BT-474. Kind of series: Cell viability, BT-474 breast cancer cells. The note with it: Homo sapiens; BT-474 (Her-2+), treated for 24 h. Format: cell-based. The protocol:
as §1

The next series has as its system HS-578T. Description: Cell viability, HS-578T breast cancer cells. Format: cell-based. The note with it: Homo sapiens; HS-578T (Triple negative), treated for 24 h. The procedure:
as §1

The test system of another series is T47D. Description: Cell viability, T47D breast cancer cells. The settings on record: Homo sapiens; T47D (ER+/PR+), treated for 24 h. Format: cell-based. The procedure: as §1
A further series relates to MDA-MB-157. Description: Cell viability, MDA-MB-157 breast cancer cells. The settings on record: Homo sapiens; MDA-MB-157 (Triple negative), treated for 24 h. Format: cell-based. The protocol: as §1
Another series has as its system MDA-MB-468. Kind of series: Cell viability, MDA-MB-468 breast cancer cells. Format: cell-based. The settings on record: Homo sapiens; MDA-MB-468 (Triple negative), treated for 24 h. The protocol: as §1
Series [6] concerns MDA-MB-231 Xenograft. The settings on record: Doxorubicin alone, IP 1 mg/kg/day.
Protocol: Female nu/nu mice (5 weeks old) were from National Laboratory Animal Center, Taipei, Taiwan. […] MDA-MB-231 breast cancer cells (5×10^6 cells per mouse) were suspended in 0.1 ml of Matrigel solution (50% (v/v) Matrigel in PBS) and inoculated into the mammary fat pads of the mice. […] Compounds was administered P.O. once every day for 32 days. Tumor size and mouse body weight were measured once every 4 days, and tumor volume (mm3) was calculated using the equation: length×(width)^2×0.5. At the end of experiments, mice were sacrificed and tumor nodules were dissected and weighed.
[7] abbreviates: MDA-MB-231, 24 h, MDA-MB-231, treated 24 hours, read-out: IC50 24 hours.
[8] abbreviates: MDA-MB-231, 72 h, MDA-MB-231, treated 72 hours, read-out: IC50 72 hours.
The mark [9] stands for this setting: PC-3, treated 24 hours, read-out: IC50 24 hours.
Where [10] appears, read: PC-3, treated 72 hours, read-out: IC50 72 hours.
[11] abbreviates: HCT-116, treated 24 hours, read-out: IC50 24 hours.
Where [12] appears, read: HCT-116, treated 48 hours, read-out: IC50 48 hours.
Where [13] appears, read: HCT-116, treated 72 hours, read-out: IC50 72 hours.
Setting [14] is: PC-3, treated 48 hours, read-out: IC50 48 hours.

Broadly, the IC50 is the concentration needed to halve the response being measured. One may read the melting point as the temperature, or range, at which the solid turns liquid.

Regarding `COc1cc(/C=C/C(=O)C(C)(C)C(=O)/C=C/c2ccc(OC(=O)C(C)(CO)CO)c(OC)c2)ccc1OC(=O)C(C)(CO)CO` [Compound 35a, ((1E,6)-4,4-Dimethyl-3,5-dioxohept-1,6-diene-1,7-diyl)bis(2-methoxy-4,1-phenylene) bis(3-hydroxy-2-(hydroxymethyl)-2-methylpropanoate)], in series [1], the “body weight and behavior change” value is reported as “no significant difference”. The IC50 in series [2] (setting [7]) was 5.33 ± 0.69 µM; in [2] (setting [8]), 1.98 µM; in the series with PC3 prostate cancer cell (setting [9]) it was 3.49 ± 0.4 µM; in the series with PC3 prostate cancer cell (setting [10]), 1.76 ± 0.14 µM; in [3] (setting [11]), 6.67 ± 0.43 µM; in series [3] (setting [12]), 3.35 ± 0.09 µM. The 50% inhibitory concentration (IC50) in series [3] (setting [13]) is 1.65 ± 0.16 µM; in series [4] (Homo sapiens, MDA-MB-231, 24 h), 5.7 µM. Further, the “times more potent than curcumin (IC50)” value in series [2] (MDA-MB-231, 72 h treatment, curcumin IC50 16.23 μM) turned out to be 8.2 times. Moreover, in series [4] (Doxorubicin-resistant MDA-MB-231), the “times greater inhibitory activity than curcumin” value stood at 10 times.

As to `CCC(CC)(C(=O)/C=C/c1ccc(OC(=O)C(C)(CO)CO)c(OC)c1)C(=O)/C=C/c1ccc(OC(=O)C(C)(CO)CO)c(OC)c1` [Compound 35b, ((1E,6E)-4,4-Diethyl-3,5-dioxohepta-1,6-diene-1,7-diyl)bis(2-methoxy-4,1-phenylene) bis(3-hydroxy-2-(hydroxymethyl)-2-methylpropanoate)], the melting point fell in the range of 189 to 191 °C. Moreover, the IC50 in series [2] (setting [7]) came out at 8.64 ± 0.27 µM. Moreover, in series [2] (setting [8]), the IC50 was 2 ± 0.02 µM. In addition, the IC50 with PC3 prostate cancer cell (setting [9]) was found to be 8.7 ± 0.14 µM. In addition, the IC50 in the series with PC3 prostate cancer cell (setting [14]) is 3.67 ± 0.25 µM. The concentration for half-maximal inhibition (IC50) with PC3 prostate cancer cell (setting [10]) turned out to be 2.16 ± 0.12 µM. Further, the IC50 in [3] (setting [11]) was 7.71 ± 0.03 µM. Further, in series [3] (setting [13]), the IC50 worked out at 1.74 ± 0.02 µM.

Compound `C=CCC(CC=C)(C(=O)/C=C/c1ccc(OC(=O)C(C)(CO)CO)c(OC)c1)C(=O)/C=C/c1ccc(OC(=O)C(C)(CO)CO)c(OC)c1` [Compound 35e, ((1E,6E)-4,4-diallyl-3,5-dioxohepta-1,6-diene-1,7-diyl)bis(2-methoxy-4,1-phenylene) bis(3-hydroxy-2-(hydroxymethyl)-2-methylpropanoate)] had a melting point of 195 to 197 °C. In addition, the IC50 in series [2] (setting [7]) was 9.02 ± 0.5 µM. For the same compound, in series [2] (setting [8]), the IC50 came to 0.71 µM. Besides, the IC50 with PC3 prostate cancer cell (setting [9]) came to 4.24 ± 0.18 µM. In the series on PC3 prostate cancer cell (setting [14]), the IC50 amounted to 3.54 ± 0.26 µM. In addition, the half-maximal inhibitory concentration (IC50) in the series on PC3 prostate cancer cell (setting [10]) came to 2.63 ± 0.77 µM. Besides, the IC50 in series [3] (setting [11]) turned out to be 2.18 ± 0.22 µM. Also, in series [3] (setting [13]), the IC50 was 0.71 ± 0.01 µM.

As for `COc1cc(/C=C/C(=O)C(CO)(CO)C(=O)/C=C/c2ccc(OC(=O)C(C)(CO)CO)c(OC)c2)ccc1OC(=O)C(C)(CO)CO` [Compound 40, ((1E,6E)-4,4-bis(hydroxymethyl)-3,5-dioxohepta-1,6-diene-1,7-diyl)bis(2-methoxy-4-phenylene) bis(3-hydroxy-2-(hydroxymethyl)-2-methylpropanoate)], the melting point fell in the range of 234 to 237 °C. Further, the IC50 in series [2] (setting [7]) was more than 100 µM. Further, the IC50 in series [2] (MDA-MB-231, 48 h, MDA-MB-231, treated 48 hours, read-out: IC50 48 hours) worked out at 84.9 ± 1.67 µM. Also, the IC50 in series [2] (setting [8]) is 57.9 ± 2.73 µM. Also, in the series with PC3 prostate cancer cell (setting [9]), the half-inhibitory concentration (IC50) was more than 100 µM. Besides, in the series on PC3 prostate cancer cell (setting [14]), the IC50 was more than 100 µM. In addition, the IC50 with PC3 prostate cancer cell (setting [10]) was 74.6 ± 2.04 µM. Besides, in [3] (setting [11]), the IC50 was more than 100 µM. For the same compound, in series [3] (setting [12]), the IC50 was determined as 69.1 ± 3.11 µM. For the same compound, in series [3] (setting [13]), the IC50 is 58.04 ± 0.53 µM.

Take `COc1cc(/C=C/C(=O)/C=C(O)/C=C/c2ccc(O)c(OC)c2)ccc1O` [Curcumin, (E,E)-1,7-bis (4-hydroxy-3-methoxyphenyl)-1,6-heptadiene-3,5-dione]: the “body weight, behavior change and blood chemistry (serology detection)” value with MDA-MB-231 Xenograft [5] is reported as “no significant difference”. Besides, the 50% inhibitory concentration (IC50) with MCF-7 turned out to be 42.9 ± 2.36 µM; in series [2] (MDA-MB-231, 24 h, read-out: IC50 24 hours), 38.8 ± 3.35 µM; in series [2] (MDA-MB-231, 48 h, read-out: IC50 48 hours) it was 22.1 ± 2.97 µM; in series [2] (MDA-MB-231, treated 72 hours, read-out: IC50 72 hours) it was 16.2 µM; with SKBR-3, 42.8 ± 1.47 µM; in the series with MDA-MB-453, 32.4 ± 1.41 µM. Besides, the IC50 was 57.1 ± 10.1 µM in the series with PC3 prostate cancer cell (setting [9]); 30 ± 0.72 µM with PC3 prostate cancer cell (setting [14]); 18.8 ± 1.31 µM in the series on PC3 prostate cancer cell (setting [10]); 78 ± 11.2 µM in [3] (setting [11]); 26.3 ± 1.38 µM in series [3] (setting [12]); 13.8 ± 0.5 µM in [3] (setting [13]). The IC50 is 30.1 ± 1.42 µM in the series with BT-474; 55.5 ± 1.39 µM with HS-578T; 47.9 ± 3.9 µM with T47D; 40.4 ± 3.26 µM in the series on MDA-MB-157; 58.6 ± 4.03 µM in series [4]; 57.6 µM in series [4] (Homo sapiens, MDA-MB-231, 24 h). This compound also returned an IC50 in the series with MDA-MB-468 of 42.9 ± 2.35 µM.

Regarding `COc1cccc2c1C(=O)c1c(O)c3c(c(O)c1C2=O)C[C@@](O)(C(=O)CO)C[C@@H]3O[C@H]1C[C@H](N)[C@H](O)[C@H](C)O1` [Doxorubicin, reference compound], in the series with MDA-MB-231 Xenograft [6], the “reduction of MDA-MB-231 tumor weight compared with control group” value was found to be 60%.
